# Measurements taken from ChEMBL document CHEMBL2040735, “Synthesis, benzodiazepine receptor binding and molecular modelling of isochromeno[4,3-c]pyrazol-5(1H)-one derivatives” (Eur J Med Chem, 2012).
# Organism: Bos taurus
# Assay: Displacement of [3H]flunitrazepam from benzodiazepine receptor in bovine brain membrane at 10 uM by liquid scintillation counting
# Type: cell membranes
# Settings: not given
row,Compound,inhibition
1,Cc1cccc(-n2nc(C)c3c(=O)oc4ccccc4c32)c1,78%
2,Cc1nn(-c2ccccc2)c2c1oc(=O)c1ccc(Cl)cc12,35%
3,Cc1nn(-c2cccc(Cl)c2)c2c1oc(=O)c1ccccc12,28%
4,Cc1ccc(-n2nc(C)c3c(=O)oc4ccccc4c32)cc1,66%
5,Cc1nn(-c2ccccc2)c2c1c(=O)oc1ccccc12,76%
6,O=c1oc2ccccc2c2c1c(-c1ccccc1)nn2-c1ccccc1,10%
7,Cc1nn(-c2cccc(Cl)c2)c2c1c(=O)oc1ccccc12,86%
8,Cc1ccc(-n2nc(C)c3oc(=O)c4ccccc4c32)cc1,13%
9,O=c1oc2cnn(-c3ccccc3)c2c2ccccc12,54%
10,Cc1ccc2c(c1)c(=O)oc1c(C)nn(-c3ccccc3)c12,6%
11,O=c1oc2c(-c3ccccc3)nn(-c3ccccc3)c2c2ccccc12,5%
12,Cc1cccc(-n2nc(C)c3oc(=O)c4ccccc4c32)c1,40%
13,Cc1nn(-c2ccccc2)c2c1oc(=O)c1ccccc12,20%
14,Cc1nn(-c2ccccc2)c2c1oc(=O)c1cc(Cl)ccc12,0%

# Organism: Bos taurus
# Settings: Brain, Membrane, 1 uM
# Description: Displacement of [3H]flunitrazepam from benzodiazepine receptor in bovine brain membrane at 1 uM by liquid scintillation counting
row,Compound,inhibition
1,CN1C(=O)CN=C(c2ccccc2)c2cc(Cl)ccc21,98%
